{
  "source": "paper PMC8409945",
  "about": "“In silico identification and experimental validation of cellular uptake and intracellular labeling by a new cell penetrating peptide derived from CDN1” (Drug Delivery, 2021)",
  "key": {"cells": {"tested_on": "cells", "test": "Cellular uptake of FITC-labeled peptides: comparison of CPPs, temperature and inhibitors (cell line not stated)", "format": "cell-based", "details": "1 h", "protocol": "(§1) All cells (thawed cells were passaged less than 5 times) were suspended in 0.5 ml media and cultured in a 24-well plate at a concentration of 1.6 × 10^5 cells per well overnight. […] After incubation, the cells were washed with PBS three times and then imaged by fluorescence microscopy with 20 times lens (Nikon, Tokyo, Japan).\n(§2) To determine the penetration efficiency of CPP, the cellular uptake of the indicated concentration of CPP was quantified by multimode spectrophotometry Peptide incubation. The washing step was the same as above, followed by cell lysate collection with 0.3 ml/well-lysing buffer (0.1 M NaOH) for 10 minutes, and then serially centrifuged at 110 g for 5 minutes. A plate-reader spectrophotometer (Tecan, Mannedorf, Switzerland) was used to quantify the fluorescence intensity of each well’s supernatant at the wavelengths of 485 nm in excitation and 535 nm in emission. The protein concentration of supernatant measured by Bradford assay was used to normalize fluorescence intensity. The fluorescence of cellular uptake was expressed as intensity per mg of total cellular protein. Experiments of quantification indicated in this paper were repeated at least three times."}, "[1]": {"test": "Peptide aggregation assay by native PAGE", "format": "physicochemical", "details": "4 µl peptide 500 µM in PBS, 6.5% native PAGE; Figure S5(B)"}, "HepG2 cells": {"tested_on": "HepG2 cells", "test": "Cellular uptake of FITC-labeled peptides, fluorescence microscopy and lysate fluorescence quantification", "format": "cell-based, human", "protocol": "as §1, §2"}},
  "data": [
    {"substance": "FITC-(Acp)-RKRRQTSMTDFYHSKRRLIFSKRK [P2]", "values": [
      {"measurement": "Red blood cell membrane damage (hemolysis)", "setting": "mouse erythrocytes", "result": "did not observe red blood cell membrane damage"},
      {"measurement": "Penetrating efficiency at different temperature", "setting": "cells; FITC-P2 5 µM, different temperature, 3 replications, Figure 5(A,B)", "result": "temperature dependent"},
      {"measurement": "Penetration efficiency in the presence of endocytosis-related inhibitors", "setting": "cells; FITC-P2 5 µM, NaN3, NH4Cl, Heparin, Serum, MβCD, Wortmannin, hyperosmotic sucrose, Chlorpromazine, EIPA, 3 replications, Figure 5(C,D)", "result": "significantly decrease"},
      {"measurement": "Penetration in the presence of wortmannin and hyperosmotic sucrose", "setting": "cells; FITC-P2 5 µM, wortmannin and hyperosmotic sucrose, Figure 5(C,D)", "result": "slightly blocked"},
      {"measurement": "Penetration efficiency compared with well-known CPPs", "setting": "cells; FITC-labeled peptides 5 µM, microscopy and fluorescence intensity normalized to protein, 3 replications, Figure 4(C,D)", "result": "higher penetration efficiency than MT23 but lower than TAT and hPP10 and Dot1l"},
      {"measurement": "Aggregation propensity by native PAGE", "setting": "[1]", "result": "a single band of P2 and without apparent aggregation"},
      {"measurement": "Fluorescence microscopy and normalized fluorescence intensity versus incubation time", "setting": "HepG2 cells", "result": "significantly increased with incubation time"}
    ]}
  ]
}
